Assay results published in article PMC4398321, “Epoxide based inhibitors of the hepatitis C virus non-structural 2 autoprotease” (Antiviral Research, 2015).

Experiments:
[1] = Cell viability endpoint assay (Thiazolyl Blue Tetrazolium Bromide); assay type: cell-based; details: human, Huh7 cells (hepatoma cell line); 72 h incubation, 11-point dose response
Experimental: (§1) Cellular metabolism was quantified by 2 h incubation in 1 mM Thiazolyl Blue Tetrazolium Bromide (Sigma Aldrich) before crystals were suspended in 100 μl DMSO and absorbance at 570 nm measured using an infinite F50 platereader (Tecan). Data was normalised to DMSO control. CC50 was calculated using Prism 6 (GraphPad).
(§2) In other systems, the requirement of epoxide-based inhibitors to form a transient interaction with the protease before becoming covalently linked allows them greater selectivity and makes them more amenable to in vivo applications ([Powers et al., 2002]). To explore the potential for bis-amido based epoxide warheads to exert an inhibitory effect within a HCV model system, compounds 1–10 and cerulenin were tested for cytotoxic effects by calculating CC50 from 72 h incubation in a hepatoma cell line capable of supporting HCV replication (Supplementary Fig. 2). Of the compounds showing significant activity in vitro only 1 and 7 exerted no significant cytotoxicity up to 100 μM (Table 1).

[2] = target: T1, JFH1 NS2–3 (NS2 autoprotease) (Hepatitis C virus genotype 2a, UniProt Q99IB8); experiment: NS2–3 auto-processing (refolding) assay, JFH1; assay type: biochemical, Hepatitis C virus genotype 2a isolate JFH1; details: for EC50: JFH1 NS2–3 refolding reaction, 10-point dose response, NS3-FLAG product quantified by western blot
T1 construct: (JFH1 polyprotein residues 906–1209, J4 residues 904–1206); His tag (N); made in house; host or cells: E. coli BL21 (DE3) pLysS, pET23a
T1 sequence (Q99IB8 906-1209): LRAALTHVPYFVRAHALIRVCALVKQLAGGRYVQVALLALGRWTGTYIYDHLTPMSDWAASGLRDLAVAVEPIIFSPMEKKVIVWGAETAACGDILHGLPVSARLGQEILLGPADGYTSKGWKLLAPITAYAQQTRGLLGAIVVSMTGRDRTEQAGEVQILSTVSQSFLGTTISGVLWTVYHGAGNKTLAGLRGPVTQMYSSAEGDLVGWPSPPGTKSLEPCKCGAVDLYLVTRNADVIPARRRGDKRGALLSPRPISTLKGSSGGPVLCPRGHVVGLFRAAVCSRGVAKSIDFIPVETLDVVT
Experimental: NS2–3 at 20 μM in 6 M GdnHCl was diluted 1:100 into Refolding buffer (30% glycerol, 0.5% CHAPS, 250 mM NaCl, 3 mM cysteine, 50 μM ZnCl2, 10 mM DTT, 50 mM HEPES–NaOH, pH 7.0) and incubated 16 h RT. Compounds (133 × final concentration in DMSO) were diluted into Refolding buffer before the addition of NS2–3 to yield required final concentrations. Reactions were halted by the addition of ¼ volume 4 × Laemmli buffer (200 mM Tris–HCl pH 6.8, 40% glycerol, 8% SDS, 0.08% bromophenol blue, 20 mM DTT) and analysed by 15% SDS–PAGE and western blot using M2 anti-FLAG monoclonal antibody (Sigma Aldrich) followed by IRDye 680RD Donkey anti-Mouse secondary (LI-COR Biosciences). Imaging and analysis was performed using Odyssey imager (LI-COR Biosciences). Intensity of the 20 kDa proteolysis product (NS3-FLAG) was quantified to calculate 50% effective concentration (EC50) using Prism 6 (GraphPad).
To assess the ability of a small molecule to inhibit NS2 protease activity, an in vitro auto-processing assay was employed. A NS2–NS3 precursor protein (NS2–3) comprising the catalytic C-terminal domain of NS2 and the N-terminal protease domain of NS3 (JFH1 polyprotein residues 906–1209, J4 residues 904–1206) flanked by an N-terminal His tag and C-terminal FLAG tag was bacterially expressed and purified from inclusion bodies under denaturing conditions by immobilised metal ion affinity chromatography (IMAC). Upon dilution into Refolding buffer, NS2–3 forms significant secondary structure ([Foster et al., 2010]) allowing the autoprotease to become active. This can be monitored by western blot analysis of NS2–3 refolding reactions with an anti-FLAG antibody to reveal 35 kDa precursor NS2–3-FLAG and 20 kDa NS3-FLAG, one of the proteolysis products. Quantification of the proteolysis product was used as a relative measure of NS2 autoprotease activity.

[3] = target: T1, JFH1 NS2–3 (NS2 autoprotease); set-up: method as in Pieroni et al., 1997; Thibeault et al., 2001; details: ref Pieroni et al., 1997; Thibeault et al., 2001; cited from earlier work
Huh7 cells = experiment: Cell viability endpoint assay (Thiazolyl Blue Tetrazolium Bromide); assay type: cell-based; details: 72 h incubation, 11-point dose response
Experimental: as §1, §2

[4] = test system: SGR-JFH1-NS2-5B cell line; experiment: Cellular metabolism of SGR-JFH1-NS2-5B cell line; assay type: cell-based; details: Telaprevir 150 nM, 48 h
Experimental: (§3) Stable cell lines harbouring SGR (Supplementary material) were maintained in Dulbecco’s modified Eagle’s medium (DMEM; Sigma) supplemented with 10% foetal bovine serum (FBS), 100 IU penicillin ml^−1, 100 μg streptomycin ml^−1, 1% non-essential amino acids and 300 μg/ml G418 (Sigma) in a humidified incubator at 37 °C in 5% CO2. Cells were seeded at a density of 2 × 10^4 cells/well in a 96 well plate. After 16 h media was removed and replaced with media supplemented with the indicated concentrations of compounds with standard DMSO at 0.25%. Plates were incubated in the absence of G418 for a further 48 h.
as §1

[5] = test system: SGR-JFH1-NS3-5B cell line; experiment: Cellular metabolism of SGR-JFH1-NS3-5B cell line; assay type: cell-based; details: Telaprevir 150 nM, 48 h
Experimental: as §3, §1

SGR-JFH1-NS2-5B = experiment: SGR firefly luciferase assay, NS2-dependent JFH1 replicon; assay type: cell-based, Hepatitis C virus genotype 2a isolate JFH1; details: Telaprevir 150 nM, 48 h
Experimental: as §3
(§4) Luciferase activity was quantified by addition of 30 μl Passive Lysis Buffer (PLB: Promega) and addition of 40 μl LarI reagent (Promega) using a BMG Labtech plate reader with light emission recorded over 6 s. Data was normalised to DMSO control. Statistical significance was determined using the Student’s t test. […]
(§5) Constructs for HCV SGRs of the genotype 1b Con1 (BM4-5) and genotype 2a JFH1 isolates containing a firefly luciferase – neomycin phosphotransferase fusion protein (ffLuc - NPT) have been previously reported (Wyles et al., 2009, Wyles et al., 2007), into which the relevant NS2 coding sequence was introduced. […] Transcripts were purified by phenol/chloroform extraction and quantified by absorbance at 260 nm. […]

SGR-JFH1-NS3-5B = experiment: SGR firefly luciferase assay, NS2-independent JFH1 replicon; assay type: cell-based, Hepatitis C virus genotype 2a isolate JFH1; details: Telaprevir 150 nM, 48 h
Experimental: as §3, §4, §5

In the case of C/C=C/C/C=C/CCC(=O)[C@H]1O[C@H]1C(N)=O [Cerulenin], the CC50 at 72 h [1] is reported as 31.9 µM, the EC50 [2] is reported as greater than 300 µM and the “Activity against the NS2 autoprotease (in words)” value ([2]; JFH1 NS2–3 refolding, dose response) is reported as “no activity”.

In the case of CC(C)C[C@H](NC(=O)[C@H]1O[C@@H]1C(=O)O)C(=O)NCCCCN=C(N)N [Compound E64], the “Activity against the NS2 autoprotease” value [3] is listed as “inactive” and the “Inhibition of NS2 autoprotease” value ([2]; E64 300 μM) is listed as “not inhibited”.

For O=C(O)CN(CCN(CC(=O)O)CC(=O)O)CC(=O)O [EDTA], the “Inhibition of NS2 autoprotease activity” value ([2]; EDTA 10 mM) was “inhibited”.

With Cc1ccc(S(=O)(=O)N[C@@H](Cc2ccccc2)C(=O)CCl)cc1 [TPCK, Tosyl phenylalanine chloromethyl ketone] the CC50 (Huh7 cells) was 3.3 µM and the EC50 [2] was 15.3 µM.

For CCC[C@H](NC(=O)[C@@H]1[C@H]2CCC[C@H]2CN1C(=O)[C@@H](NC(=O)[C@@H](NC(=O)c1cnccn1)C1CCCCC1)C(C)(C)C)C(=O)C(=O)NC1CC1 [Telaprevir], the Cellular metabolism [4] was “no effect”, the Cellular metabolism [5] was “no effect” and the Luciferase activity (SGR-JFH1-NS2-5B) was “comparable reduction”. For the same compound, the Luciferase activity (SGR-JFH1-NS3-5B) was “comparable reduction”.
